Here are results for ten compounds from US20240116985A1, “STAPLED PEPTIDES AND METHODS THEREOF” (priority 2020, published 2024).

Assay [1] concerns the target T1, beta-catenin/TCF4 engagement (Homo sapiens, UniProt P35222).
T1 construct: expressed in transfected cells; host or cells: HEK293
T1 sequence (P35222 1-781): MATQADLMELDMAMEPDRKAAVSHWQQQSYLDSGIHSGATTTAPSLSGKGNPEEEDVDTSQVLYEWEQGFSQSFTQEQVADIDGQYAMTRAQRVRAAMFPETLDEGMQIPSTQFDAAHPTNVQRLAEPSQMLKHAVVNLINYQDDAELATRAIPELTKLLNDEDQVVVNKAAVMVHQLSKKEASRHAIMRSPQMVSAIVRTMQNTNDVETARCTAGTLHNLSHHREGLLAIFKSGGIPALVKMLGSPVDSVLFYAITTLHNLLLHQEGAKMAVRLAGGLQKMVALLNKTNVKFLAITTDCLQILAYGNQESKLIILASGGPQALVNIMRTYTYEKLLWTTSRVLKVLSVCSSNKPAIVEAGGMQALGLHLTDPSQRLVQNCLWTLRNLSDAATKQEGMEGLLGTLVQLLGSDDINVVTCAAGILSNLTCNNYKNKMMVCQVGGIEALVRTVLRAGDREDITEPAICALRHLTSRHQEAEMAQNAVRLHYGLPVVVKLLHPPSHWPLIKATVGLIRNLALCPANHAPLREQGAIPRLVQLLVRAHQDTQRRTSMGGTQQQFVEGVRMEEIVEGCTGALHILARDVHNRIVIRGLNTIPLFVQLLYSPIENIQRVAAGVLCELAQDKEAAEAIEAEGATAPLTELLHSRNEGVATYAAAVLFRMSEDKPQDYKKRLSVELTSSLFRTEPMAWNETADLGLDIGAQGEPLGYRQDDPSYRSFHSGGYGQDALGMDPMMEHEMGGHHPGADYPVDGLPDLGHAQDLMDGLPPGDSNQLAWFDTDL
The assay can be described thus: Nano-BRET target engagement assay (B-cat-Halo & TCF4-Luc in HEK293 cells). To be noted: absolute IC50; read-out: NanoBRET Abs IC50. The assay is classed as cell-based.

For assay [2], the target named is T2, full-length beta-Catenin (Uniprot ID P35222) (Homo sapiens, UniProt P35222).
T2 construct: 10 nM full-length beta-Catenin (Uniprot ID P35222)
T2 sequence (P35222 1-781): T1 sequence (P35222 1-781)
The assay can be described thus: Fluorescence polarization IC50 (beta-catenin / 5FAM-TCF4 10-53 competition). To be noted: fluorescence polarization; read-out: beta-Catenin FP IC50. Type of assay: binding. A general note: In fluorescence polarisation assays a small probe gives low polarisation when free and higher when bound to something large.

pIC50: −log10 of the molar value.

In general, pIC50 refers to the negative decadic logarithm of the IC50, by convention in mol/L. For `CC(=O)N1CCC[C@]12CC=CCCCC1(CCCC=CCCCOC(=O)N3CC[C@@](C(=O)N[C@@H](Cc4ccsc4)C(=O)N[C@@H](Cc4csc5ccccc45)C(=O)N[C@@H](CCC(N)=O)C(N)=O)(C3)NC(=O)[C@H](CC(C)C)NC(=O)[C@H](Cc3ccccc3)NC(=O)[C@H](C)NC(=O)[C@H](C)NC(=O)[C@H](CC(=O)O)NC(=O)[C@H](CC(=O)O)NC1=O)NC(=O)[C@H](CCCCNC(=O)C13CC4(C)CC(C)(CC(C)(C4)C1)C3)NC(=O)[C@H](CC(=O)O)NC2=O` (stereo partly drawn) [I-1471, Ac-PL3-Asp-[Me3AdamantC]-Lys-B5-Asp-Asp-Ala-Ala-Phe-Leu-PyrS2-3Thi-BztA-Gln-NH2], the figures for the negative-log IC50 (pIC50) in assay [1] and in assay [2] were under 4.70 and 7.47, respectively.

As for `CC(=O)N1CCC[C@]12CC=CCCCC1(CCCC=CCCCOC(=O)N3CC[C@@](C(=O)N[C@@H](Cc4ccsc4)C(=O)N[C@@H](Cc4csc5ccccc45)C(=O)N[C@@H](CCC(N)=O)C(N)=O)(C3)NC(=O)[C@H](CC(C)C)NC(=O)[C@H](Cc3ccccc3)NC(=O)[C@H](C)NC(=O)[C@H](C)NC(=O)[C@H](CC(=O)O)NC(=O)[C@H](CC(=O)O)NC1=O)NC(=O)[C@H](CCCCNC(=O)COCCOCCNC(=O)C13CC4(C)CC(C)(CC(C)(C4)C1)C3)NC(=O)[C@H](CC(=O)O)NC2=O` (stereo partly drawn) [I-1472, Ac-PL3-Asp-[Me3AdamantC-PEG2]-Lys-B5-Asp-Asp-Ala-Ala-Phe-Leu-PyrS2-3Thi-BztA-Gln-NH2], the pIC50 in assay [1] was under 4.70; in assay [2], 7.92.

Turning to `CC(=O)N1CCC[C@]12CC=CCCCC1(CCCC=CCCCOC(=O)N3CC[C@@](C(=O)N[C@@H](Cc4ccsc4)C(=O)N[C@@H](Cc4csc5ccccc45)C(=O)N[C@@H](CCC(N)=O)C(N)=O)(C3)NC(=O)[C@H](CC(C)C)NC(=O)[C@H](Cc3ccccc3)NC(=O)[C@H](CCCCNC(=O)COCCOCCNC(=O)CC[C@@H](C)[C@H]3CC[C@H]4[C@@H]5CC[C@@H]6C[C@H](O)CC[C@]6(C)[C@H]5CC[C@]34C)NC(=O)[C@H](C)NC(=O)[C@H](CC(=O)O)NC(=O)[C@H](CC(=O)O)NC1=O)NC(=O)[C@H](CC(C)(C)C)NC(=O)[C@H](CC(=O)O)NC2=O` (stereo partly drawn) [I-1474, Ac-PL3-Asp-Npg-B5-Asp-Asp-Ala-[lithocholate-PEG2]-Lys-Phe-Leu-PyrS2-3Thi-BztA-Gln-NH2], the pIC50 was under 4.70 in assay [1] and 7.39 in assay [2].

For `CC(=O)N1CCC[C@]12CC=CCCCC1(CCCC=CCCCOC(=O)N3CC[C@@](C(=O)N[C@@H](Cc4ccsc4)C(=O)N[C@@H](Cc4csc5ccccc45)C(=O)N[C@@H](CCC(N)=O)C(N)=O)(C3)NC(=O)[C@H](CC(C)C)NC(=O)[C@H](Cc3ccccc3)NC(=O)[C@H](CCCCNC(=O)COCCOCCNC(=O)C34CC5(C)CC(C)(CC(C)(C5)C3)C4)NC(=O)[C@H](C)NC(=O)[C@H](CC(=O)O)NC(=O)[C@H](CC(=O)O)NC1=O)NC(=O)[C@H](CC(C)(C)C)NC(=O)[C@H](CC(=O)O)NC2=O` (stereo partly drawn) [I-1476, Ac-PL3-Asp-Npg-B5-Asp-Asp-Ala-[Me3AdamantC-PEG2]-Lys-Phe-Leu-PyrS2-3Thi-BztA-Gln-NH2], the values for the pIC50 in assay [1] and in assay [2] were under 4.70 and 7.80, respectively.

`CC(=O)N1CCC[C@]12CC=CCCCC1(CCCC=CCCCOC(=O)N3CC[C@@](C(=O)N[C@@H](Cc4ccsc4)C(=O)N[C@@H](Cc4csc5ccccc45)C(=O)N[C@@H](CCC(N)=O)C(=O)N[C@@H](CCCCNC(=O)COCCOCCNC(=O)CC[C@@H](C)[C@H]4CC[C@H]5[C@@H]6CC[C@@H]7C[C@H](O)CC[C@]7(C)[C@H]6CC[C@]45C)C(N)=O)(C3)NC(=O)[C@H](CC(C)C)NC(=O)[C@H](Cc3ccccc3)NC(=O)[C@H](C)NC(=O)[C@H](C)NC(=O)[C@H](CC(=O)O)NC(=O)[C@H](CC(=O)O)NC1=O)NC(=O)[C@H](CC(C)(C)C)NC(=O)[C@H](CC(=O)O)NC2=O` (stereo partly drawn) [I-1478, Ac-PL3-Asp-Npg-B5-Asp-Asp-Ala-Ala-Phe-Leu-PyrS2-3Thi-BztA-Gln-[lithocholate-PEG2]-Lys-NH2]: the values for the pIC50 in assay [1] and in assay [2] were 4.77 and 7.12, respectively.

In the case of `CC(=O)N1CCC[C@]12CC=CCCCC1(CCCC=CCCCOC(=O)N3CC[C@@](C(=O)N[C@@H](Cc4ccsc4)C(=O)N[C@@H](Cc4csc5ccccc45)C(=O)N[C@@H](CCC(N)=O)C(=O)N[C@@H](CCCCNC(=O)COCCOCCNC(=O)C45CC6(C)CC(C)(CC(C)(C6)C4)C5)C(N)=O)(C3)NC(=O)[C@H](CC(C)C)NC(=O)[C@H](Cc3ccccc3)NC(=O)[C@H](C)NC(=O)[C@H](C)NC(=O)[C@H](CC(=O)O)NC(=O)[C@H](CC(=O)O)NC1=O)NC(=O)[C@H](CC(C)(C)C)NC(=O)[C@H](CC(=O)O)NC2=O` (stereo partly drawn) [I-1480, Ac-PL3-Asp-Npg-B5-Asp-Asp-Ala-Ala-Phe-Leu-PyrS2-3Thi-BztA-Gln-Me3AdamantC-PEG2]-Lys-NH2], the results for the pIC50 in assay [1] and in assay [2] were 5.03 and 7.43, respectively.

On to `CC(=O)N1CCC[C@]12CC=CCCCC1(CCCC=CCCCOC(=O)N3CC[C@@](C(=O)N[C@@H](Cc4ccsc4)C(=O)N[C@@H](Cc4csc5ccccc45)C(=O)N[C@@H](CCC(N)=O)C(N)=O)(C3)NC(=O)[C@H](CC(C)C)NC(=O)[C@H](Cc3ccccc3)NC(=O)[C@H](C)NC(=O)[C@H](CCCN3CCC(F)(F)CC3)NC(=O)[C@H](CC(=O)O)NC(=O)[C@H](CC(=O)O)NC1=O)NC(=O)[C@H](CC(C)(C)C)NC(=O)[C@H](CC(=O)O)NC2=O` (stereo partly drawn) [I-1482, Ac-PL3-Asp-Npg-B5-Asp-Asp-F2PipNva-Ala-Phe-Leu-PyrS2-3Thi-BztA-Gln-NH2], for which the pIC50 is 4.74 in assay [1] and 8.15 in assay [2].

In the case of `CC(=O)N1CCC[C@]12CC=CCCCC1(CCCC=CCCCOC(=O)N3CC[C@@](C(=O)N[C@@H](Cc4ccsc4)C(=O)N[C@@H](Cc4csc5ccccc45)C(=O)N[C@@H](CCC(N)=O)C(N)=O)(C3)NC(=O)[C@H](CC(C)C)NC(=O)[C@H](Cc3ccccc3)NC(=O)[C@H](C)NC(=O)[C@H](CC(=O)N3CCOCC3)NC(=O)[C@H](CC(=O)O)NC(=O)[C@H](CC(=O)O)NC1=O)NC(=O)[C@H](CC(C)(C)C)NC(=O)[C@H](CC(=O)O)NC2=O` (stereo partly drawn) [I-1483, Ac-PL3-Asp-Npg-B5-Asp-Asp-MorphAsn-Ala-Phe-Leu-PyrS2-3Thi-BztA-Gln-NH2], the pIC50 in assay [1] is under 4.70; in assay [2] it was 7.66.

In the case of `CC(=O)N1CCC[C@]12CC=CCCCC1(CCCC=CCCCOC(=O)N3CC[C@@](C(=O)N[C@@H](Cc4ccsc4)C(=O)N[C@@H](Cc4csc5ccccc45)C(=O)N[C@@H](CCC(N)=O)C(N)=O)(C3)NC(=O)[C@H](CC(C)C)NC(=O)[C@H](Cc3ccccc3)NC(=O)[C@H](C)NC(=O)[C@H](CC(=O)N3CCN(C)CC3)NC(=O)[C@H](CC(=O)O)NC(=O)[C@H](CC(=O)O)NC1=O)NC(=O)[C@H](CC(C)(C)C)NC(=O)[C@H](CC(=O)O)NC2=O` (stereo partly drawn) [I-1484, Ac-PL3-Asp-Npg-B5-Asp-Asp-MePpzAsn-Ala-Phe-Leu-PyrS2-3Thi-BztA-Gln-NH2], the pIC50 is under 4.70 in assay [1] and 7.52 in assay [2].

On to `CC(=O)N1CCC[C@]12CC=CCCCC1(CCCC=CCCCOC(=O)N3CC[C@@](C(=O)N[C@@H](Cc4ccsc4)C(=O)N[C@@H](Cc4csc5ccccc45)C(=O)N[C@@H](CCC(N)=O)C(N)=O)(C3)NC(=O)[C@H](CCCN3CCOCC3)NC(=O)[C@H](Cc3ccccc3)NC(=O)[C@H](C)NC(=O)[C@H](C)NC(=O)[C@H](CC(=O)O)NC(=O)[C@H](CC(=O)O)NC1=O)NC(=O)[C@H](CC(C)(C)C)NC(=O)[C@H](CC(=O)O)NC2=O` (stereo partly drawn) [I-1485, Ac-PL3-Asp-Npg-B5-Asp-Asp-Ala-Ala-Phe-MorphNva-PyrS2-3Thi-BztA-Gln-NH2], for which the figures for the pIC50 in assay [1] and in assay [2] were 4.59 and 8.15, respectively.
